The test system of assay [1] is Human immunodeficiency virus 1. Kind of assay: Concentration required for 50% protection of MT-4 cells against the cytopathic effect of HIV-1. It counts as functional, organism-based. To be noted: Human immunodeficiency virus 1, MT4. On the technique in general: Damage to the host cells serves as the signal in cytopathic effect assays.
For a further assay, the system named is MT4. Kind of assay: Effective concentration of compound required to achieve 50% protection of MT-4 cells against the cytopathic effect of HIV-1. It is filed as functional, cell-based. To be noted: Homo sapiens.

Drawing on ChEMBL document CHEMBL1128253, “Synthesis and anti-HIV-1 activity of 4,5,6,7-tetrahydro-5-methylimidazo-[4,5,1-jk][1,4]benzodiazepin- 2(1H)-one (TlBO) derivatives. 4” (J Med Chem, 1995), this text covers IC50 for 41 compounds.

`C[C@H]1Cn2c(=O)[nH]c3ccc(N)c(c32)CN1CC1CC1` showed an IC50 in assay [1] of 849000 nM.

As to `C[C@H]1Cn2c(=O)[nH]c3cc(N)cc(c32)CN1CC1CC1`, the IC50 in assay [1] stood at 60600 nM. This IC50 lies about 14-fold lower than the previous one.

In the case of `CC(=O)Nc1ccc2nc(O)n3c2c1CN(CC1CC1)[C@@H](C)C3`, the IC50 in assay [1] was over 796000 nM.

`COc1ccc2c3c1[nH]c(=O)n3C[C@H](C)N(CC=C(C)C)C2` showed an IC50 in assay [1] of 6630 nM.

In assay [1], `CCc1ccc2nc(O)n3c2c1CN(CC=C(C)C)[C@@H](C)C3` came in with an IC50 of over 5940 nM.

In assay [1], `CC(C)=CCN1Cc2c(C(N)=O)ccc3[nH]c(=O)n(c23)C[C@@H]1C` yielded an IC50 of 6360 nM.

As for `C[C@H]1Cn2c(=O)[nH]c3cc(N(C)C)cc(c32)CN1CC1CC1`, the IC50 in assay [1] came out at 6650 nM.

Turning to `CCC(=CCN1Cc2c(C)ncc3nc(S)n(c23)CC1C)CC` (stereo unspecified), it took 243 nM to reach half-maximal inhibition in assay [1] (IC50).

For the compound `CCC(=CCN1Cc2c(C)ncc3nc(O)n(c23)CC1C)CC` (stereo unspecified), the IC50 in assay [1] is over 2000 nM.

For `CC(C)=CCN1Cc2c(I)ccc3[nH]c(=O)n(c23)C[C@@H]1C`, the IC50 in assay [1] stood at 88 nM.

Regarding `CCC(=CCN1Cc2cc(C(C)(C)C)cc3nc(O)n(c23)C[C@@H]1C)CC`, the IC50 in assay [1] worked out at 314 nM.

Take `CC(C)=CCN1Cc2cc(C(F)(F)F)cc3nc(S)n(c23)C[C@@H]1C`: the IC50 in assay [1] worked out at 485 nM.

In turn, `C[C@H]1Cn2c(=O)[nH]c3cc([N+](=O)[O-])cc(c32)CN1CC1CC1` had an IC50 in assay [1] of 33400 nM.

In the case of `CC(C)=CCN1Cc2c(C#N)ccc3nc(O)n(c23)C[C@@H]1C`, the IC50 in assay [1] stood at 1140 nM.

Turning to `CC(C)=CCN1Cc2cc(Cl)cc3[nH]c(=S)n(c23)C[C@@H]1C`, the IC50 in assay [1] is 34 nM.

`CC(C)=CCN1Cc2cc(Cl)c(Cl)c3nc(S)n(c23)C[C@@H]1C` yielded an IC50 in assay [1] of 25.5 nM.

With `C#Cc1ccc2nc(O)n3c2c1CN(CC=C(C)C)[C@@H](C)C3`, the IC50 in assay [1] was determined as 438 nM.

In assay [1], `C[C@H]1Cn2c(=O)[nH]c3ccc(N(C)C)c(c32)CN1CC1CC1` displayed an IC50 of 6650 nM.

`CSc1ccc2[nH]c(=S)n3c2c1CN(CC=C(C)C)[C@@H](C)C3` displayed an IC50 in assay [1] of 5 nM.

The compound `CC(C)=CCN1Cc2c(I)ccc3[nH]c(=S)n(c23)C[C@@H]1C` displayed an IC50 in assay [1] of 47.4 nM.

The compound `CC(=O)Nc1cc2c3c(c1)[nH]c(=O)n3C[C@H](C)N(CC1CC1)C2` yielded an IC50 in assay [1] of 159000 nM. Against the preceding compound, the IC50 is about 3400-fold higher.

`COc1ccc2c3c1[nH]c(=S)n3C[C@H](C)N(CC=C(C)C)C2` displayed an IC50 in assay [1] of 4720 nM.

As for `CC(C)=CCN1Cc2c(C)ncc3nc(O)n(c23)CC1C` (stereo unspecified), in assay [1], the IC50 was 872000 nM.

Consider `CC(C)=CCN1Cc2c(Br)ccc3nc(S)n(c23)C[C@@H]1C`, for which the IC50 in assay [1] was 3 nM.

Compound `Cc1ncc2nc(O)n3c2c1CN(CC1CC1)C(C)C3` (stereo unspecified) showed an IC50 in assay [1] of 596000 nM.

In assay [1], `CCOc1ccc2[nH]c(=S)n3c2c1CN(CC=C(C)C)[C@@H](C)C3` yielded an IC50 of 95.9 nM.

As to `CC(C)=CCN1Cc2ccc(Br)c3nc(S)n(c23)C[C@@H]1C`, in assay [1], the IC50 amounted to 1080 nM.

For the compound `COc1ccc2[nH]c(=S)n3c2c1CN(CC=C(C)C)[C@@H](C)C3`, half-maximal inhibition in assay [1] (IC50) required 33.9 nM. Compared with the last compound, the IC50 is about 32-fold lower.

In the assay on MT4, `CC(C)=CCN1Cc2cccc3[nH]c(=S)n(c23)C[C@@H]1C` returned an IC50 of 44 nM. That is a double-digit nanomolar value.

In assay [1], `CC(C)=CCN1Cc2c(F)ccc3nc(S)n(c23)C[C@@H]1C` gave an IC50 of 5.8 nM.

As for `CC(C)=CCN1Cc2c(C=O)ccc3nc(S)n(c23)C[C@@H]1C`, the IC50 in assay [1] stood at 188 nM.

In turn, `CC(C)=CCN1Cc2c(C)ccc3nc(O)n(c23)C[C@@H]1C` registered a half-inhibitory concentration (IC50) in assay [1] of 989 nM.

Regarding `CC(C)=CCN1Cc2c(C#N)ccc3nc(S)n(c23)C[C@@H]1C`, the IC50 in assay [1] worked out at 56.3 nM.

As to `C#Cc1ccc2nc(S)n3c2c1CN(CC=C(C)C)[C@@H](C)C3`, the IC50 in assay [1] is 29.6 nM.

`CC(C)=CCN1Cc2c(Br)ccc3nc(O)n(c23)C[C@@H]1C` came in with an IC50 in assay [1] of 47.3 nM.

For `CC(C)=CCN1Cc2cc(F)cc3nc(S)n(c23)C[C@@H]1C`, half-maximal inhibition in assay [1] (IC50) was put at 25 nM.

Regarding `CC(C)=CCN1Cc2cc(C(F)(F)F)cc3nc(O)n(c23)C[C@@H]1C`, in assay [1], the half-maximal inhibitory concentration (IC50) came out at 5920 nM.

For the compound `CC(C)=CCN1Cc2c(C)ccc3nc(S)n(c23)C[C@@H]1C`, the IC50 in assay [1] is 13.6 nM.

In assay [1], `C[C@H]1Cn2c(=S)[nH]c3cc([N+](=O)[O-])cc(c32)CN1CC1CC1` registered an IC50 of 2450 nM.

Compound `CC(C)=CCN1Cc2c(Cl)ccc3[nH]c(=S)n(c23)C[C@@H]1C` [TIVIRAPINE] had an IC50 in assay [1] of 4.3 nM.

`Cc1cn([C@H]2C[C@H](N=[N+]=[N-])[C@@H](CO)O2)c(=O)[nH]c1=O` [ZIDOVUDINE] yielded an IC50 in assay [1] of 4.1 nM.

A word on the IC50: it is the concentration that gives 50% inhibition. Read a high IC50 as lower potency.
